Assay results: ChEMBL document CHEMBL1201862, “PubChem BioAssay data set” (2004)
Values joined by “and” are separate entries in the source; they are usually repeats but may differ in a detail not shown here. Equal values may be shown once. Blank lines part the entries; values can stand above or below the compound they belong to. Active and inactive are the calls of the source.

Legend:
[1] = target: T1, Short transient receptor potential channel 4 (Mus musculus, UniProt Q9QUQ5); test: block of DAMGO-driven TRPC4 calcium entry – cell-based, HEK293 TRPC4/mu-opioid, Fluo-4 calcium, dose response (AID 434942); type: functional;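 note: potency of inhibitors blocking the TRPC4 calcium response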
T1 sequence (Q9QUQ5 whole entry): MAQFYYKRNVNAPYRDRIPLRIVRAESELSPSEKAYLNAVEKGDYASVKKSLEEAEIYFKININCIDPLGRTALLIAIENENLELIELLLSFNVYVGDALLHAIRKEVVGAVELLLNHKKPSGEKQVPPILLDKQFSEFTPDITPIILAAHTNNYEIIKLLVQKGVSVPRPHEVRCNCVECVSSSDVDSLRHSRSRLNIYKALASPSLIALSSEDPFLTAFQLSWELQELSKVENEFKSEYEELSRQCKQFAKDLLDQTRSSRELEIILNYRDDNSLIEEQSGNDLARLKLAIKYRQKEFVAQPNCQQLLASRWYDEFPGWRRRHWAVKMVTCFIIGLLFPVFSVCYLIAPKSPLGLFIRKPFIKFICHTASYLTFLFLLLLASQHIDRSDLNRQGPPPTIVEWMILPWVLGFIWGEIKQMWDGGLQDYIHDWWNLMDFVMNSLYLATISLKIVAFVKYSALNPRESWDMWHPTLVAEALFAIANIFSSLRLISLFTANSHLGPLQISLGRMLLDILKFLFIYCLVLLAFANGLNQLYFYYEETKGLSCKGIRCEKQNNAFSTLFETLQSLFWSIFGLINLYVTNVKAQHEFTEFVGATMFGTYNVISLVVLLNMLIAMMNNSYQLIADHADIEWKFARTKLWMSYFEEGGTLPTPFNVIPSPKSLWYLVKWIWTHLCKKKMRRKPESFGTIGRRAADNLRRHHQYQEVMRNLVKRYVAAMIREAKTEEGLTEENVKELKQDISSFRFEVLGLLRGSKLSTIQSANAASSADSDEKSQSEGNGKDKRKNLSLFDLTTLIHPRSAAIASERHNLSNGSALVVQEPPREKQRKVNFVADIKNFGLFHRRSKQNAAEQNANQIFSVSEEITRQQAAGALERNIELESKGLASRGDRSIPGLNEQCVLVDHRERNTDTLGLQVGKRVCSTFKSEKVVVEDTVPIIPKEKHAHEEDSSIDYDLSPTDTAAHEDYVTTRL

[2] = target: T2, Heat shock factor protein 1 (Mus musculus, UniProt P38532); test: decrease of HSF1-responsive luciferase luminescence – cell-based, NIH3T3, dose retest, confirmation (AID 2382); type: functional;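 note: NIH3T3 fibroblasts with HSF1-driven luciferase reporter stressed by proteasome inhibitor MG132; luminescence from HSF1-driven luciferase expression after 8 hours of MG132 stress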
T2 sequence (P38532 whole entry): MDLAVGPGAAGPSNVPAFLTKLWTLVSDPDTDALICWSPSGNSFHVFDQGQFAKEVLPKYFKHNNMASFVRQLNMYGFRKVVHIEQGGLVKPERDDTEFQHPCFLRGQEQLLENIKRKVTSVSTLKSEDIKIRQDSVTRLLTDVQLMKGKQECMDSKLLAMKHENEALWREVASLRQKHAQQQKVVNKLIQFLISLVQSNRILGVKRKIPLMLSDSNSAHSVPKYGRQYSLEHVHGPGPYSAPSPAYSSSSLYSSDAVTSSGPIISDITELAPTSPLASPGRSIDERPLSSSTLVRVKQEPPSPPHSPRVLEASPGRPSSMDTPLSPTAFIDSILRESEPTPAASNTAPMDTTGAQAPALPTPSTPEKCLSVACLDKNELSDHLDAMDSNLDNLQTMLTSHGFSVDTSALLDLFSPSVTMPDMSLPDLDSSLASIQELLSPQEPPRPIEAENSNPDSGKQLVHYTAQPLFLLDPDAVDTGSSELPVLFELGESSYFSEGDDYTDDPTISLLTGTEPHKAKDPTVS

Protein skinhead-1 = target: T3, Protein skinhead-1 (Caenorhabditis elegans, UniProt P34707); type: functional
T3 sequence (P34707 whole entry): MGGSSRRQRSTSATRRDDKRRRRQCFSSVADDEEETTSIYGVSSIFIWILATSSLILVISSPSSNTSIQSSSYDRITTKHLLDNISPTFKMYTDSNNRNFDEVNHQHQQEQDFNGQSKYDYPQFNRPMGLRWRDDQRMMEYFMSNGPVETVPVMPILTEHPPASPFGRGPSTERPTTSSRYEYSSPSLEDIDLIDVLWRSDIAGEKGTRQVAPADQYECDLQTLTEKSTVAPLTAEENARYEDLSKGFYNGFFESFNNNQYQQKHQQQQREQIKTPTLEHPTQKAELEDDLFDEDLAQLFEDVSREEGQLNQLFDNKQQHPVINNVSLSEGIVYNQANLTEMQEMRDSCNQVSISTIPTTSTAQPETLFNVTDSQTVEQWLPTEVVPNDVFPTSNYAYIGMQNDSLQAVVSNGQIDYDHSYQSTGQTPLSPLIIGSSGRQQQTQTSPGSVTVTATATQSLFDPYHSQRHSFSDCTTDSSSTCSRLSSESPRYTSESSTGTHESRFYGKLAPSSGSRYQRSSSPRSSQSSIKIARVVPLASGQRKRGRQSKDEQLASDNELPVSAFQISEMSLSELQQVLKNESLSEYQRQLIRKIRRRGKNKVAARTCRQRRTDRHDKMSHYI

Cytochrome P450 2C9 = Cytochrome P450 2C9 (Homo sapiens, UniProt P11712)
Cytochrome P450 2D6 = Cytochrome P450 2D6 (Homo sapiens, UniProt P10635);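 note: CYP2D6 member of a cytochrome P450 panel assay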
Cytochrome P450 1A2 = target: T4, Cytochrome P450 1A2 (Homo sapiens, UniProt P05177);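 note: PubChem cytochrome P450 panel assay, CYP1A2 panel member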
T4 sequence (P05177 whole entry): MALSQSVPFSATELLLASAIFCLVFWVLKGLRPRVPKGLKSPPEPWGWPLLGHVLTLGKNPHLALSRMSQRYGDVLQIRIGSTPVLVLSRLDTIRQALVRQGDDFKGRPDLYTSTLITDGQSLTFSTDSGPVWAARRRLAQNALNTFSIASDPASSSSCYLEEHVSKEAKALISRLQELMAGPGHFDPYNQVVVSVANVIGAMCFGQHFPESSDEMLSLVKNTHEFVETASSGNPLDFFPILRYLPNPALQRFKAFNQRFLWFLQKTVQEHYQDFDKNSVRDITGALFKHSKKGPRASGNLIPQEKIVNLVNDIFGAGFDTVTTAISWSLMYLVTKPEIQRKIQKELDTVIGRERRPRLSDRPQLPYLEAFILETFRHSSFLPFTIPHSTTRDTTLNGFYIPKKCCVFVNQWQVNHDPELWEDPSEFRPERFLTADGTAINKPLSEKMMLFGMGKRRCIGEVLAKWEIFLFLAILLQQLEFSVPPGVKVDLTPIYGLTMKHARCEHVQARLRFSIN

[3] = NIH3T3 cell viability loss – ATP luminescence, mouse fibroblasts, counter-screen, dose response (AID 2010); type: functional, cell-based;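 note: cells exposed to compound for about 90 hours before reading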
[4] = Trypanosoma cruzi growth suppression in host cells – NIH3T3 host cells, beta-gal luminescence, confirmation (AID 2044); type: functional, cell-based;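 note: intracellular parasites grown in NIH/3T3 mouse fibroblasts as host cells; luminescent beta-galactosidase reporter signal from transgenic T. cruzi replicating inside host cells; inhibitors lower the luminescence signal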
Cytochrome P450 2C19 = Cytochrome P450 2C19 (Homo sapiens, UniProt P33261); test: Cytochrome panel assay with activity outcomes. Panel member name: p450-cyp2c19 Compounds with AC50 equal or less than 10 uM are considered active; type: functional; settings: read-out: AC50
Cytochrome P450 3A4 = Cytochrome P450 3A4 (Homo sapiens, UniProt P08684);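 note: CYP3A4 tested as one member of a cytochrome P450 panel screen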
[5] = viability of uninfected HEp-2 cells – cell-based, HTS, cytotoxicity control for RSV inhibitor project, dose response (AID 2410); type: functional; settings: human respiratory syncytial virus
[6] = target: T2, Heat shock factor protein 1; test: enhancement of HSF1-driven luciferase signal – cell-based, NIH3T3, luminescence, dose retest, confirmation (AID 435004); type: functional;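 note: stress induced by proteasome inhibitor MG132 added 30 min after compound; luciferase reporter driven by HSF1 response element in NIH3T3 cells; actives raise luminescence as potentiators of the MG132 stress response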

Sequence of Cytochrome P450 2D6 (P10635 whole entry): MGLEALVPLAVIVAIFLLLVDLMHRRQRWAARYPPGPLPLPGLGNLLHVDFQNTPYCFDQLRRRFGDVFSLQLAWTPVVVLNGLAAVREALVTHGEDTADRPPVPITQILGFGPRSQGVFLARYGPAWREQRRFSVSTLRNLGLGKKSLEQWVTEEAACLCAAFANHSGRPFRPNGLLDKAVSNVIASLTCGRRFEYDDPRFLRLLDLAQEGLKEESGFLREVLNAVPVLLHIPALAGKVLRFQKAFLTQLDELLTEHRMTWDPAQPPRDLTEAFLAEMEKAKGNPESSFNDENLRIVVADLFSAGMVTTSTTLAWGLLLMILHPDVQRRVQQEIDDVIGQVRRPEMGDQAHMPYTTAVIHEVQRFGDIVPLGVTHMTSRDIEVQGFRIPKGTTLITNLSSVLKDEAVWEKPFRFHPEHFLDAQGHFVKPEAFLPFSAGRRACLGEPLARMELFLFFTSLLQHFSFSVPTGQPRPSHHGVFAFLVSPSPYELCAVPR
Sequence of Cytochrome P450 2C9 (P11712 whole entry): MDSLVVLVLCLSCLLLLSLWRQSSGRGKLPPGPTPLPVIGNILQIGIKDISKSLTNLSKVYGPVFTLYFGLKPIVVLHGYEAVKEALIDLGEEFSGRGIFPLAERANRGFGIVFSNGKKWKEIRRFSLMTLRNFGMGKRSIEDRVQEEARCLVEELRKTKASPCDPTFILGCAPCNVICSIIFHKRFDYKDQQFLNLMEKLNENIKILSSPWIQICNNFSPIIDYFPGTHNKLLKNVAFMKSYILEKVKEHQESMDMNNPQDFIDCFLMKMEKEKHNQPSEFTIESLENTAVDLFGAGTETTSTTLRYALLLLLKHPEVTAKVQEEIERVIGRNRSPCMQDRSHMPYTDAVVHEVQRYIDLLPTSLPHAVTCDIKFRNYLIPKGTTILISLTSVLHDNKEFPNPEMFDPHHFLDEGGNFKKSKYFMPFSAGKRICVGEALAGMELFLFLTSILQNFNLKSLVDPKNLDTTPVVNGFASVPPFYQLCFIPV
Sequence of Cytochrome P450 2C19 (P33261 whole entry): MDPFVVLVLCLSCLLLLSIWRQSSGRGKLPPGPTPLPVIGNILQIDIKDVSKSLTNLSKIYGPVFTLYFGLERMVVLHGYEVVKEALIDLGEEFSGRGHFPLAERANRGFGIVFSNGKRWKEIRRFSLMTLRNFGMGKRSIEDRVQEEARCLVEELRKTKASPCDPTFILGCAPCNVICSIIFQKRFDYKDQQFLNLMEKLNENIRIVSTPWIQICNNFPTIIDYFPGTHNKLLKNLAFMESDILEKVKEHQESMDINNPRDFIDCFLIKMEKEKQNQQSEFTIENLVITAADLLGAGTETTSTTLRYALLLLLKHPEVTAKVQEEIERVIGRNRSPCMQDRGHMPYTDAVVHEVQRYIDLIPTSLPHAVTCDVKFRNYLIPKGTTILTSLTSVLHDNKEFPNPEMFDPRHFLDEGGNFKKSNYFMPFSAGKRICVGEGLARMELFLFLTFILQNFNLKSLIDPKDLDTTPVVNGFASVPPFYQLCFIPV
Sequence of Cytochrome P450 3A4 (P08684 whole entry): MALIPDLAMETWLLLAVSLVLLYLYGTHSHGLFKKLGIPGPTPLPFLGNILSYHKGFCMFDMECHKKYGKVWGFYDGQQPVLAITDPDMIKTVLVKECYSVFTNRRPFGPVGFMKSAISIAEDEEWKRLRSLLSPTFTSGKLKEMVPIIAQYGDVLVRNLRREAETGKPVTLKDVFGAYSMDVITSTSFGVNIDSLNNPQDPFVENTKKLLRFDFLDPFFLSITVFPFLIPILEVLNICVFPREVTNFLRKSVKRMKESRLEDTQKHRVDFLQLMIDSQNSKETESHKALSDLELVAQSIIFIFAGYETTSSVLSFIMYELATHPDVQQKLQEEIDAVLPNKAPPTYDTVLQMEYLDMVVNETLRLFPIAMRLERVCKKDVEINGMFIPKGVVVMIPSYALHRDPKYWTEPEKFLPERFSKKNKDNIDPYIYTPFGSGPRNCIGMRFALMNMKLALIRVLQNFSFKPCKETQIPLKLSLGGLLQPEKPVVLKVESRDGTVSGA

SMILES: COc1cccc(NC(=O)N2CCCC2C(=O)NC(C)C)c1 (stereo unspecified)
EC50 [2]: 152 µM (active)

SMILES: Fc1ccccc1N=C(S)NN(Cc1ccccc1)c1ccccc1
IC50 (Protein skinhead-1): > 100 µM (inactive)

SMILES: Cc1ccc(C[n+]2cc(-c3ccc(Cl)cc3)n3c2CCC3)cc1
EC50 [1]: 2.37 µM (active)

SMILES: CN1CC[C@]2(C)c3cc(O)ccc3N(C)[C@@H]12
AC50 (Cytochrome P450 2C9): 12.6 µM (inconclusive)
AC50 (Cytochrome P450 2D6): 31.6 µM (inconclusive) and 12.6 µM (inconclusive)
AC50 (Cytochrome P450 1A2): 15.8 µM (inconclusive) and 31.6 µM (inconclusive)

SMILES: Cc1ccc(S(=O)(=O)Nc2nc(C)c(NC(=O)Nc3ccc(Cl)cc3Cl)s2)cc1
AC50 (Cytochrome P450 2D6): 28.2 µM (inconclusive)

SMILES: COCCn1c(SCc2ccc(OC)c(F)c2)nc2ccccc2c1=O
EC50 [1]: 2.99 µM (active)
EC50 [3]: 31.8 µM (active)
EC50 [4]: 2.24 µM (active)

SMILES: O=C(c1ccncc1)N1CCC2(CC1)CN(Cc1cc(C(F)(F)F)cc(C(F)(F)F)c1)C2
AC50 (Cytochrome P450 2D6): 31.6 µM (inconclusive)

SMILES: CNC(=O)NC(=S)NC(=O)c1ccccc1Cl
EC50 [2]: > 195 µM (not active)

SMILES: CCC1CCc2c(c3ccccc3[nH]c2=O)O1 (stereo unspecified)
AC50 (Cytochrome P450 2C19): 17.8 µM (inconclusive)
AC50 (Cytochrome P450 2D6): 39.8 µM (inconclusive)

SMILES: CCOC(=O)c1oc2ccccc2c1CN1CCCCC1
EC50 [1]: 4.22 µM (active)

SMILES: Fc1ccc(Cn2nnc(-c3ccc(CN4CCOCC4)cc3)n2)cc1
IC50 (Protein skinhead-1): 6.09 µM (active)

SMILES: O=C(CC(c1ccccc1)c1ccccc1)NCC1CCCO1 (stereo unspecified)
AC50 (Cytochrome P450 2D6): 11.2 µM (inconclusive)
AC50 (Cytochrome P450 3A4): 22.4 µM (inconclusive)

SMILES: CCOC(=O)C1CCN(C2CCN(C(=O)c3oc4c(C)c(C)ccc4c3C)CC2)CC1
EC50 [1]: 4.22 µM (active)

SMILES: CCCN1C2CCCC1CC(NC(=O)c1ccc(F)cc1)C2 (stereo unspecified)
IC50 (Protein skinhead-1): > 100 µM (inactive)

SMILES: Cc1cc(-c2sccc2C)nc(-n2cccc2)n1
EC50 [1]: 7.5 µM (active)

SMILES: CN(C)CCN1C(=O)C2C(C(=O)Nc3cc(Cl)cc(Cl)c3)C3C=CC2(O3)C1C(=O)NC1CCCCC1 (stereo unspecified)
EC50 [1]: 6.68 µM (active)
EC50 [6]: > 260 µM (inactive)

SMILES: O=C(CNC(=O)c1cccnc1)N/N=C/c1cc(Br)c(O)c(Br)c1
EC50 [2]: > 195 µM (not active)

SMILES: CCCOc1ccc(Br)cc1/C=N/O
EC50 [1]: 1.68 µM (active)

SMILES: S=C(N/N=C1\CCc2ccccc21)NC1CCCCC1
EC50 [2]: 87.7 µM (active)

Now from value to compound, other results behind:

EC50 [1]: 0.299 µM (active)
SMILES: COc1ccc(C(CNc2ccc(C(F)(F)F)cn2)N(C)C)cc1OC (stereo unspecified)

IC50 (Protein skinhead-1): > 100 µM (inactive)
SMILES: CCOC(=O)C1=C(CSc2nc(-c3ccccc3)ccc2C#N)OC(N)=C(C#N)C1c1ccccc1 (stereo unspecified)

IC50 (Protein skinhead-1): 28.7 µM (active)
SMILES: COc1ccc2c(c1)OC/C(=C/c1cccs1)C2=O

IC50 (Protein skinhead-1): > 100 µM (inactive)
SMILES: CC(NS(=O)(=O)c1ccc(OCC(=O)N2CCOCC2)c(Cl)c1)c1ccccc1 (stereo unspecified)

EC50 [1]: 1.88 µM (active)
SMILES: Cc1ccc(Cn2c(=N)n(CC(O)c3ccco3)c3ccccc32)cc1 (stereo unspecified)

AC50 (Cytochrome P450 2C9): 7.94 µM (inconclusive)
AC50 (Cytochrome P450 2D6): 0.178 µM (inconclusive)
SMILES: CCOc1ccc(N2C(=O)c3cccnc3C2=O)cc1

EC50 [2]: > 195 µM (not active)
SMILES: COC(=O)c1cc(S(=O)(=O)NCCc2ccccc2)c[nH]1

AC50 (Cytochrome P450 2D6): 10 µM (inconclusive)
SMILES: CN(C)c1nccc(N(Cc2ccccc2)Cc2ccccc2)c1C#N

AC50 (Cytochrome P450 2D6): 28.2 µM (inconclusive)
SMILES: O=c1cc(N2CCCCC2)c(-c2ccccc2)nn1Cc1ccccc1Cl

EC50 [1]: 0.531 µM (active)
SMILES: COc1ccc(C2NC(C(=O)O)Cc3c2[nH]c2ccccc32)cc1CN1CCN(c2ccc(F)cc2)CC1 (stereo unspecified)

AC50 (Cytochrome P450 2D6): 25.1 µM (inconclusive)
SMILES: O=c1c2ccccc2nc(-c2ccc(Br)cc2)n1Cc1ccccc1

EC50 [2]: > 195 µM (not active)
SMILES: COc1ccc(O)c(-c2c(C)n[nH]c2-c2ccc(Cl)cc2)c1

EC50 [1]: 6.68 µM (active)
SMILES: COc1cccc(C(=O)C2CCCN(Cc3cccn3-c3ccccn3)C2)c1 (stereo unspecified)

EC50 [2]: > 195 µM (not active)
SMILES: COc1ccc(NC(=O)C2Cc3ccccc3C(=O)O2)cc1 (stereo unspecified)

AC50 (Cytochrome P450 2C9): 1 µM (inconclusive)
AC50 (Cytochrome P450 2D6): 20 µM (inconclusive)
SMILES: COc1ccc2[nH]cc(CCNc3cc(-c4ccccc4C(F)(F)F)ncn3)c2c1

AC50 (Cytochrome P450 2D6): 20 µM (inconclusive)
AC50 (Cytochrome P450 3A4): 15.8 µM (inconclusive)
AC50 (Cytochrome P450 1A2): 15.8 µM (inconclusive)
SMILES: COc1ccc(-n2c(=O)c(-c3cc(F)cc(F)c3)nc3cnc(N4CCOCC4)nc32)cc1

AC50 (Cytochrome P450 2C19): 6.31 µM (inconclusive)
AC50 (Cytochrome P450 2D6): 14.1 µM (inconclusive)
SMILES: CC(=O)Nc1ccc(-c2nnc(SCC(=O)c3ccc4c(c3)Cc3ccccc3-4)n2C)cc1

EC50 [2]: > 195 µM (not active)
SMILES: CC[n+]1c(/C=C/c2cc([N+](=O)[O-])ccc2O)ccc2ccccc21
CC50 [5]: 36.9 µM (active)

IC50 (Protein skinhead-1): > 100 µM (inactive)
SMILES: CCC(C)(C)NC(=O)C(c1cccn1C)N(C(=O)Cn1nnc2ccccc21)c1ccc(OC)cc1OC (stereo unspecified)

EC50 [2]: > 195 µM (not active)
SMILES: Cc1ccc(F)cc1N=C(S)NCCc1ccccc1

EC50 [1]: 1.5 µM (active)
SMILES: CN(Cc1cnn(C)c1)C(=O)c1ccc(OC2CCN(CCc3ccccc3)CC2)cc1

IC50 (Protein skinhead-1): > 100 µM (inactive)
SMILES: O=C(Nc1ccc2c(c1)CN(C(=O)Nc1ccc(F)cc1)CC2)c1ccccn1

EC50 [2]: > 195 µM (not active)
SMILES: CN(/C(=N\S(=O)(=O)c1ccccc1)C(F)(F)F)c1ccccc1

IC50 (Protein skinhead-1): > 100 µM (inactive)
SMILES: O=C(Nc1ccccc1)c1c[nH]cn1
